Data taken from US20050191612A1, “Method of screening insulin content enhancer” (priority 2002, published 2005).

What was measured:
[1] = tested on: insulin promoter activity in mouse pancreatic β cell line NIT1 cells; experiment: Insulin promoter reporter (plasmid InsPro) luciferase activity in NIT1 cells; assay type: cell-based; conditions: compound 30 μmol/L, treatment 31 hours, p<0.01
Description: A transfection reagent (LIPOFECTAMINE 2000; GIBCO BRL, or FuGENE6; Boeringer Mannheim) was used to introduce plasmid InsPro (1-10 ng) prepared in Example 2 to mouse pancreatic β cell line NIT1 cells (4×10^4 cells). The trasfected cells were seeded on a 96-well plate. A Dulbecco modified Eagles' medium (DMEM) or F-12 medium containing 10% fetal calf serum (FCS) was used as a medium. After the seeding, the cells were cultured for 18-20 hours. […] After the medium was aspirated, the cells were lysed with a cell lysing solution (cell lysis buffer LCβ; Toyo Ink Mfg.). A luciferase activity of each lysate was measured by a commercially available measuring kit (PicaGene Luminescent kit; Toyo Ink Mfg.) and a measuring apparatus (ML3000 microtiter plate luminometer; Dynatech Laboratories). […] Further, where the above procedure is repeated except for using a cell not expressing the polypeptide for a screening tool, as a control cell, instead of the cell for a screening tool, when the insulin promoter reporter activity is not increased in the control cell, it can be judged that such a test substance can activate the polypeptide consisting of the amino acid sequence of SEQ ID NO: 2.
Next, compounds A-E were evaluated in a manner similar to that described in Example 5. More particularly, a 96-well plate coated with collagen was used as the 96-well plate, and DMEM was used as the medium. […]

[2] = tested on: GK (Goto-Kakizaki) rats (type II diabetes models); experiment: Glucose tolerance test for GK (Goto-Kakizaki) rats by one oral dose; assay type: in vivo, rat; conditions: 100 mg/kg orally, at 30 and 60 minutes after glucose administration
Description: (§1) SD rats (4 weeks old; CLEA JAPAN) were made to fast overnight, and 2 g/kg of glucose was orally administered. Compound A (100 mg/kg) had been intraperitoneally administered 5 minutes before the glucose administration. An appropriate amount of blood was taken at 0 minute, 30 minutes, 60 minutes, and 120 minutes after the glucose administration, and used for the measurement of a blood glucose level and a concentration of plasma insulin.
(§2) For measuring the blood glucose level, a supernatant obtained by mixing blood and 0.33 mol/L perchloric acid (blood:0.33 mol/L perchloric acid=1:10) and centrifuging the mixture (3000×g, 10 minutes, 4° C.) was used. For measuring the concentration of plasma insulin, a supernatant obtained by centrifuging blood (3000×g, 10 minutes, 4° C.) was used. Further, Glucose C test Wako (Wako) was used in the measurement of the blood glucose level, and a rat insulin assay system (Amersham) was used in the measurement of the concentration of plasma insulin.
Then, a glucose tolerance test for GK (Goto-Kakizaki) rats (type II diabetes models with incomplete insulin secretion; 7 weeks old; Charles River Japan) by one oral dose was carried out. The GK rat line was established by selectively mating wistar rats in accordance with an index of a poor tolerance in an oral glucose tolerance test, by Yoshio Goto, et al., School of Medicine, Tohoku University, in 1975. […]

SD rats = experiment: Glucose tolerance test for SD rats by one oral dose; assay type: in vivo, rat; conditions: 100 mg/kg intraperitoneally 5 min before 2 g/kg oral glucose, at 30 minutes, p<0.05
Description: as §1, §2
FIG. 4 illustrates a time course of the concentration of plasma insulin (unit=ng/mL) after the oral administration of glucose, and FIG. 5 illustrates a time course of the blood glucose level (unit=mg/dL) after the oral administration of glucose. The mark “*” in FIGS. 4 and 5 denotes that a significant difference from the group to which compound A had not been administered was p<0.05 (Student's t-test).

S=C(OCCc1ccncc1)c1ccccc1 [compound A, 2-(pyridine-4-yl)ethyl thiobenzoate]
increased value of the reporter activity with respect to control group [1]: ≥ 1.5 times | increase of the blood glucose level by the glucose administration [2]: significantly suppressed | concentration of plasma insulin after glucose administration (SD rats): significant increase | increase of the blood glucose level by the glucose administration (SD rats): significantly suppressed
